Data set [1] concerns tissue stem cells, transient cells. As to conditions: cell kinetics type the agent acts on; positive control agents; cited from earlier work.
For data set [2] the following is noted: clinical effects of the known drug; cited from earlier work.
The test system of data set [3] is human liver stem cell-enriched cultures. Briefly: Serial culture of human liver stem cell strains with xanthosine (cumulative population doublings). Format: cell-based. As to conditions: FIG. 14A. An excerpt: Using a pre-existing dataset developed with control human mini-tissue cultures and cultures treated with the purine nucleoside xanthosine as the test agent, we have validated the ability to use basic cell culture data, described in the methods herein, to detect effects on liver tissue stem cells. […] We used xanthosine as the agent to expand human liver stem cell strains and to produce human liver mini-tissues. […] Thus, culture systems of cells comprising heterogeneous cell population of stem, transient, and differentiated cells can be used to evaluate the activity of a test agent against tissue stem cells by using the methods described herein.
As an initial test of this ability, we used existing data sets from serial culture of our human liver stem cell strains.^14,15 Because these analyses were not ideally developed for the PSCK computer simulation format, they represented a more challenging validation.
The validation agent used was xanthosine, a purine nucleoside that we have shown independently to induce tissue stem cells to switch from asymmetric self-renewal divisions to symmetric divisions that lead to self-replication.

Data set [4] concerns tissue stem cells. The settings on record: in vitro; known in the art; cited from earlier work.

Entries after “also recorded” stand apart in the source; their conditions may differ. Where a name gives a salt, the structure may show the parent alone.

Regarding `O=P1(N(CCCl)CCCl)NCCCO1` (stereo not drawn) [cyclophosphamide], the “Cell-type Specificity” value in data set [1] was “SC and TC”. In addition, the “Clinical Effects” value in data set [2] is reported as “Cytoxan ®; extremely myelosuppressive”.
For `CC(=O)[C@]1(O)Cc2c(O)c3c(c(O)c2[C@@H](O[C@H]2C[C@H](N)[C@H](O)[C@H](C)O2)C1)C(=O)c1ccccc1C3=O` [idarubicin], the “Clinical Effects” value in data set [2] was “Targets hematopoietic progenitors”.
Regarding `Cc1ccc(NC(=O)c2ccc(CN3CCN(C)CC3)cc2)cc1Nc1nccc(-c2cccnc2)n1` [imatinib mesylate], the “Cell-type Specificity” value in data set [1] is listed as “TC^b”.
Take `Cc1ccc(C(=O)Nc2ccc(CN3CCN(C)CC3)c(C(F)(F)F)c2)cc1C#Cc1cnc2cccnn12` [ponatinib]: the “Clinical Effects” value in data set [2] is on record as “Inclusig ®; myelosuppressive”.
Take `CS(=O)(=O)c1ccc(C2=C(c3ccccc3)C(=O)OC2)cc1` [refecoxib]: in data set [1], the “Cell-type Specificity” value was “SC and TC”. Also, the “Clinical Effects” value in data set [2] is on record as “Vioxx ®; idiosyncratic life-threatening toxicity”.
For the molecule `Cn1cncc1[C@@](N)(c1ccc(Cl)cc1)c1ccc2c(c1)c(-c1cccc(Cl)c1)cc(=O)n2C` [tipifarnib], in data set [2], the “Clinical Effects” value is “Highly toxic with myelosuppression”.
Turning to `O=c1[nH]c(=O)c2ncn([C@@H]3O[C@H](CO)[C@@H](O)[C@H]3O)c2[nH]1` [xanthosine], in data set [3] (experimental data), the “proliferative rate and extent of human liver stem cell serial cultures” value was “increase the proliferative rate and extent”. Moreover, in data set [3] (xanthosine-supplemented culture, control arrests after less than 30 population doublings), the “population doublings reached in serial culture” value is “greater than 80 population doublings”. Besides, the “Cell-type Specificity” value in data set [1] was “SC^a”. Moreover, the “tissue stem cell self-replication” value in data set [4] is “increases self-replication by adult tissue stem cells; also recorded: (In vitro, increases tissue SC self-replication)^1-5”.

Values taken from US9733236B2, “Methods for determining the effect of an agent on tissue stem cells” (priority 2014, dated 2017).
